Source: patent US20230339991A1, “HYPOXIA-ACTIVATED DNA ALKYLATING AGENT AND MEDICAL USE THEREOF” (ASCENTAWITS PHARMACEUTICALS, LTD., priority 2020, published 2023)
Where two headings read alike, the source gives them in different places.

Experiments:
[1] = Liver microsome stability, rat; conditions: for Remaining percentage after 30 minutes: Rat
Method: (§1) 1) Two individual experiments were performed.
(§2) 1a) With NADPH: 10 μL of 20 mg/mL liver microsomes and 40 μL of 10 mM NADPH were added to the culture solution. The final concentrations of microsomes and NADPH were 0.5 mg/mL and 1 mM, respectively.
(§3) 1b) Without NADPH: 10 μL of 20 mg/mL liver microsomes and 40 μL of ultrapure H2O were added to the culture solution. The final concentration of microsomes was 0.5 mg/mL.
(§4) 3) 50 μL of aliquots were taken from the reaction solution at 0 min and 30 min. The reaction was terminated by adding 4 volumes of cold acetonitrile and four internal standards (IS, 100 nM alprazolam, 200 nM caffeine, 200 nM labetalol and 2 μM ketoprofen). The samples were centrifuged at 3, 220×g for 40 min. The aliquots of 100 μL of supernatant were mixed with 100 μL of ultrapure H2O and then used for LC-MS/MS analysis. All experiments were performed in duplicate.

[2] = Liver microsome stability, dog; conditions: for Remaining percentage after 30 minutes: Dog
Method: as §1, §2, §3, §4

H460 cancer cells = assay: Hypoxia-dependent proliferation inhibition, H460, CTG; type: cell-based, human; conditions: for IC50: Homo sapiens, 3 h exposure
From the text: To determine the effect of the drug A according to the present invention on cancer cell proliferation, the antiproliferative activity of these compounds against the cancer cell was detected in a porous CTG-based assay. The effects of test compounds on cell proliferation under normoxic (21% O2) and hypoxic (<0.01% O2) conditions were compared. H460 cells were routinely cultured to 80%-90% of cell saturation, and when the number reached the requirement, resuspended with the corresponding culture medium, counted and prepared into cell suspension with appropriate density. The cell suspension was added to two types of 24-well plates, 495 μL per well with 1×10^4/well of cell density. 24-well plates inserted with glass insert were used for hypoxic tests, and ordinary plastic 24-well plates were used for normoxic tests. 5 μL of each compound was added to the hypoxic and normoxic reaction systems, respectively. After reacting for 3 hours in the hypoxic workstation or the normoxic incubator, the compounds were washed away using the culture medium and the system was placed in an incubator for another 72 hours. The final concentrations of each compound tested under normoxic conditions were as follows: TH-302 was 1000, 200, 40, 8, 1.6, 0.32 μM; test compound A (compound 32) was 1000, 200, 40, 8, 1.6, 0.32 μM; compound 26 was 500, 50, 5, 0.5, 0.05 μM. The final concentrations of each compound tested under hypoxic conditions were as follows: TH-302 was 10, 2, 0.4, 0.08, 0.016, 0.0032 μM; test compound A (compound 32) was 50, 5, 0.5, 0.05, 0.005, 0.0005 μM; compound 26 was 500, 50, 5, 0.5, 0.05 μM. After 72 hours of cell culture, 300 μL of culture medium was removed from each well of 24-well plate. 50 μL of CTG was added into each well. The plate was mixed and shaked for 2 min, and kept in dark for 15 minutes at room temperature. 100 μL per well of culture medium was transferred from 24-well plate to 96-well white plate, and the chemiluminescence signal value was read with Multifunctional enzyme marker with a reading time of 1000 ms. The IC50 was calculated using GraphPad Prism 5 software. […] The compound TH-302 (a hypoxic-activated prodrug entering phase III clinical studies, cas No. 918633-87-1, see the literature Sun J D, Liu Q, Wang J, et al. Selective tumor hypoxia targeting by hypoxia-activated prodrug TH-302 inhibits tumor growth in preclinical models of cancer. [J]. Clinical Cancer Research An Official Journal of the American Association for Cancer Research, 2012, 18(3): 758-70, structural formula is […]

[3] = Liver microsome stability, mouse; conditions: for Remaining percentage after 30 minutes: Mouse
Method: as §1, §2, §3, §4

[4] = Liver microsome stability, human; conditions: for Remaining percentage after 30 minutes: Human
Method: as §1, §2, §3, §4

hepatoma cell HepG2 = assay: Hypoxia-dependent proliferation inhibition, HepG2; type: cell-based, human; conditions: for IC50: Homo sapiens; for HCR (hypoxic cytotoxicity ratio): IC50 ratio normoxia/N2
From the text: To determine the effect of the drug A according to the present invention on cancer cell proliferation, the antiproliferative activity of these compounds against the cancer cell was detected in a porous CTG-based assay. The effects of test compounds on cell proliferation under normoxic (21% O2) and hypoxic (<0.01% O2) conditions were compared. H460 cells were routinely cultured to 80%-90% of cell saturation, and when the number reached the requirement, resuspended with the corresponding culture medium, counted and prepared into cell suspension with appropriate density. The cell suspension was added to two types of 24-well plates, 495 μL per well with 1×10^4/well of cell density. 24-well plates inserted with glass insert were used for hypoxic tests, and ordinary plastic 24-well plates were used for normoxic tests. 5 μL of each compound was added to the hypoxic and normoxic reaction systems, respectively. After reacting for 3 hours in the hypoxic workstation or the normoxic incubator, the compounds were washed away using the culture medium and the system was placed in an incubator for another 72 hours. The final concentrations of each compound tested under normoxic conditions were as follows: TH-302 was 1000, 200, 40, 8, 1.6, 0.32 μM; test compound A (compound 32) was 1000, 200, 40, 8, 1.6, 0.32 μM; compound 26 was 500, 50, 5, 0.5, 0.05 μM. The final concentrations of each compound tested under hypoxic conditions were as follows: TH-302 was 10, 2, 0.4, 0.08, 0.016, 0.0032 μM; test compound A (compound 32) was 50, 5, 0.5, 0.05, 0.005, 0.0005 μM; compound 26 was 500, 50, 5, 0.5, 0.05 μM. After 72 hours of cell culture, 300 μL of culture medium was removed from each well of 24-well plate. 50 μL of CTG was added into each well. The plate was mixed and shaked for 2 min, and kept in dark for 15 minutes at room temperature. 100 μL per well of culture medium was transferred from 24-well plate to 96-well white plate, and the chemiluminescence signal value was read with Multifunctional enzyme marker with a reading time of 1000 ms. The IC50 was calculated using GraphPad Prism 5 software. […] The compound TH-302 (a hypoxic-activated prodrug entering phase III clinical studies, cas No. 918633-87-1, see the literature Sun J D, Liu Q, Wang J, et al. Selective tumor hypoxia targeting by hypoxia-activated prodrug TH-302 inhibits tumor growth in preclinical models of cancer. [J]. Clinical Cancer Research An Official Journal of the American Association for Cancer Research, 2012, 18(3): 758-70, structural formula is
Similarly, the above-mentioned three compounds were tested for the proliferation inhibition effect on hepatoma cell HepG2, and the results are shown in the following table 5.

[5] = NCI-H460, hypoxic (<0.01% O2), read-out: N2 IC50
[6] = N2 (hypoxic), read-out: IC50 N2
[7] = normoxia, read-out: IC50 Normoxia
[8] = NCI-H460, normoxic (21% O2), read-out: Normoxic IC50

SMILES | stability in liver microsomes ([1]; rat) | stability in liver microsomes ([2]; canine) | IC50 ratio: Normoxia/N2 (H460 cancer cells) | IC50 (H460 cancer cells; [5]) [µM] | stability in liver microsomes ([3]; mouse) | stability in liver microsomes ([4]; human) | IC50 (hepatoma cell HepG2; [6]) [µM] | IC50 (hepatoma cell HepG2; [7]) [µM] | HCR (hypoxic cytotoxicity ratio) (hepatoma cell HepG2) | Remaining percentage after 30 minutes ([1]; with NADPH) [%] | Remaining percentage after 30 minutes ([1]; without NADPH) [%] | Remaining percentage after 30 minutes ([2]; with NADPH) [%] | Remaining percentage after 30 minutes ([2]; without NADPH) [%] | Remaining percentage after 30 minutes ([3]; with NADPH) [%] | Remaining percentage after 30 minutes ([3]; without NADPH) [%] | Remaining percentage after 30 minutes ([4]; without NADPH) [%] | IC50 (H460 cancer cells; [8]) [µM] | Remaining percentage after 30 minutes ([4]; with NADPH, 2 μM) [%]
O=[N+]([O-])c1ccc(C(OP(=O)(N2CC2)N2CC2)C(F)(F)F)c2ccccc12 (racemic) [Compound A] | not stable | not stable | 12.5 | 0.04 | relatively stable | relatively stable | 4.78 | 20.6 | 4.31 |  |  |  |  |  |  |  |  | 
O=[N+]([O-])c1ccc([C@@H](OP(=O)(N2CC2)N2CC2)C(F)(F)F)c2ccccc12 (single isomer, unassigned) [Compound C] |  |  |  |  |  |  |  |  |  | 71.05 | 111.15 | 31.16 | 101.62 | 102.89 | 103.07 | 82.15 |  | 
CC(OP(=O)(N1CC1)N1CC1)c1ccc([N+](=O)[O-])c2ccccc12 (stereo not drawn) [Compound D] |  |  | 20 | 0.04 |  |  | 1.5 | 16.7 | 11.13 | 6.81 | 103.00 | 9.97 | 99.10 | 32.37 | 96.37 | 107.67 | 0.8 | 74.28
Cn1c(COP(=O)(NCCBr)NCCBr)cnc1[N+](=O)[O-] [TH-302, Evofosfamide] |  |  | 680 | 0.02 |  |  | 12.4 | 918 | 72.82 |  |  |  |  |  |  |  | 13.6 | 
